# Results from paper PMC7995547, “ω‐Imidazolyl‐alkyl derivatives as new preclinical drug candidates for treating non‐alcoholic steatohepatitis” (Physiological Reports, 2021).
# “Also recorded” adds a separate entry of the source.
# Test system: male CD/Crl:CD(SD) rats
# Assay: Acute toxicity study, single peroral application, 14‐day observation
# Type: in vivo
# Conditions: for Ataxia / Chromodacryorrhea / Dyspnoea / Inhibition of body weight gain / Mean body weight gain, After 7 d / Mean body weight, After 7 d / Mortality within 6 h / Mortality within 24 h / Necropsy findings / Piloerection / Ptosis / Reduced motility / Reduced muscle tone / Mean body weight gain, End / Mean body weight, End / Mean body weight, Start / Mortality within 7 d / Mortality within 14 d: p.o., males, n = 5; for Mean body weight gain, End / Mean body weight, End: 14‐day observation; for Mean body weight, Start: before administration; for Premature deaths in the acute toxicity study: rat, in vivo
# Protocol: In total, 90 male CD®/Crl:CD(SD) rats from Charles River Laboratories, Deutschland GmbH, were used after randomization. Five rats were selected for each concentration of the corresponding experimental substance. […] In addition, a control group was formed with five rats receiving only the HPMC gel.
# Feeding was stopped approximately 16 h before the start of test substance application, whereas tap water continued to be available ad libitum. Granulated structural wood was used as bedding material in the cages; the material was changed and the cages were cleaned twice a week. […] The rooms were illuminated (approximately 150 lux from a ceiling height of approximately 1.50 m) and darkened for 12 h in turns.
# Each animal was kept under observation, so that any behavior deviating from the norm could be systematically recorded. Observations were made before the peroral application of the respective active substance, immediately after, and 5, 15, 30, and 60 min and 3, 6, and 24 h after the start of application. […] We focused on the changes in the skin and fur, the eyes and mucous membranes, respiration, circulation, the autonomous and central nervous systems, somatomotor activity, and behavior patterns. They were also observed for possible tremors, convulsions, salivation, diarrhea, lethargy, sleep, and coma. Mortality checks were performed at least once a day to minimize the loss of animals during the study. The time of death was recorded as accurately as possible. Individual body weights were recorded before the administration of experimental substances and, subsequently, at weekly intervals, until the end of the study and at death. Weight changes were calculated when survival exceeded 1 day.
# At the end of the experiments, all surviving animals were sacrificed, dissected, and examined macroscopically. All notable pathological changes were recorded. A microscopic examination of all organs showing obvious lesions was performed on animals that survived for 24 h or longer. Autopsy and macroscopic inspection of prematurely deceased animals were performed as soon as possible after death.
structure (smiles),measurement,setting,value
"OCCCCCCCCCCCCn1ccnc1 [I‐ol, 12‐imidazolyl‐1‐dodecanol]",Ataxia,10 mg/kg b.w.,None
same,Chromodacryorrhea,10 mg/kg b.w.,None
same,Dyspnoea,10 mg/kg b.w.,None
same,Inhibition of body weight gain,10 mg/kg b.w.,None
same,"Mean body weight gain, After 7 d",10 mg/kg b.w.,+17.0%
same,"Mean body weight, After 7 d",10 mg/kg b.w.,259.2 g
same,Mortality within 6 h,10 mg/kg b.w.,0
same,Mortality within 24 h,10 mg/kg b.w.,0
same,Necropsy findings,10 mg/kg b.w.,None
same,Piloerection,10 mg/kg b.w.,None
same,Ptosis,10 mg/kg b.w.,None
same,Reduced motility,10 mg/kg b.w.,None
same,Reduced muscle tone,10 mg/kg b.w.,None
same,"Mean body weight gain, End",10 mg/kg b.w.,+30.0%
same,"Mean body weight, End",10 mg/kg b.w.,288.0 g
same,"Mean body weight, Start",10 mg/kg b.w.,221.6 g
same,Mortality within 7 d,10 mg/kg bw,0
same,Mortality within 14 d,10 mg/kg bw,0
same,Ataxia,50 mg/kg b.w.,None
same,Chromodacryorrhea,50 mg/kg b.w.,None
same,Dyspnoea,50 mg/kg b.w.,None
same,Inhibition of body weight gain,50 mg/kg b.w.,None
same,"Mean body weight gain, After 7 d",50 mg/kg b.w.,+22.2%
same,"Mean body weight, After 7 d",50 mg/kg b.w.,278.4 g
same,Mortality within 6 h,50 mg/kg b.w.,0
same,Mortality within 24 h,50 mg/kg b.w.,0
same,Necropsy findings,50 mg/kg b.w.,None
same,Piloerection,50 mg/kg b.w.,None
same,Ptosis,50 mg/kg b.w.,None
same,Reduced motility,50 mg/kg b.w.,None
same,Reduced muscle tone,50 mg/kg b.w.,None
same,"Mean body weight gain, End",50 mg/kg b.w.,+36.3%
same,"Mean body weight, End",50 mg/kg b.w.,310.4 g
same,"Mean body weight, Start",50 mg/kg b.w.,227.8 g
same,Mortality within 7 d,50 mg/kg bw,0
same,Mortality within 14 d,50 mg/kg bw,0
same,Ataxia,100 mg/kg b.w.,None
same,Chromodacryorrhea,100 mg/kg b.w.,None
same,Dyspnoea,100 mg/kg b.w.,None
same,Inhibition of body weight gain,100 mg/kg b.w.,None
same,"Mean body weight gain, After 7 d",100 mg/kg b.w.,+18.5%
same,"Mean body weight, After 7 d",100 mg/kg b.w.,272.6 g
same,Mortality within 6 h,100 mg/kg b.w.,0
same,Mortality within 24 h,100 mg/kg b.w.,0
same,Necropsy findings,100 mg/kg b.w.,None
same,Piloerection,100 mg/kg b.w.,None
same,Ptosis,100 mg/kg b.w.,None
same,Reduced motility,100 mg/kg b.w.,None
same,Reduced muscle tone,100 mg/kg b.w.,None
same,"Mean body weight gain, End",100 mg/kg b.w.,+33.0%
same,"Mean body weight, End",100 mg/kg b.w.,305.8 g
same,"Mean body weight, Start",100 mg/kg b.w.,230.0 g
same,Mortality within 7 d,100 mg/kg bw,0
same,Mortality within 14 d,100 mg/kg bw,0
same,Ataxia,250 mg/kg b.w.,None
same,Chromodacryorrhea,250 mg/kg b.w.,None
same,Dyspnoea,250 mg/kg b.w.,None
same,Inhibition of body weight gain,250 mg/kg b.w.,None
same,"Mean body weight gain, After 7 d",250 mg/kg b.w.,+19.6%
same,"Mean body weight, After 7 d",250 mg/kg b.w.,266.8 g
same,Mortality within 6 h,250 mg/kg b.w.,0
same,Mortality within 24 h,250 mg/kg b.w.,0
same,Necropsy findings,250 mg/kg b.w.,None
same,Piloerection,250 mg/kg b.w.,None
same,Ptosis,250 mg/kg b.w.,None
same,Reduced motility,250 mg/kg b.w.,None
same,Reduced muscle tone,250 mg/kg b.w.,None
same,"Mean body weight gain, End",250 mg/kg b.w.,+34.2%
same,"Mean body weight, End",250 mg/kg b.w.,299.2 g
same,"Mean body weight, Start",250 mg/kg b.w.,223.0 g
same,Toxic signs,250 mg/kg bw,None
same,Mortality within 7 d,250 mg/kg bw,0
same,Mortality within 14 d,250 mg/kg bw,0
same,Ataxia,500 mg/kg b.w.,None
same,Chromodacryorrhea,500 mg/kg b.w.,None +
same,Dyspnoea,500 mg/kg b.w.,None
same,Inhibition of body weight gain,500 mg/kg b.w.,None
same,"Mean body weight gain, After 7 d",500 mg/kg b.w.,+29.0%
same,"Mean body weight, After 7 d",500 mg/kg b.w.,294.2 g
same,Mortality within 6 h,500 mg/kg b.w.,0
same,Mortality within 24 h,500 mg/kg b.w.,0
same,Necropsy findings,500 mg/kg b.w.,None
same,Ptosis,500 mg/kg b.w.,None
same,Reduced motility,500 mg/kg b.w.,None
same,Reduced muscle tone,500 mg/kg b.w.,None
same,"Mean body weight gain, End",500 mg/kg b.w.,+46.6%
same,"Mean body weight, End",500 mg/kg b.w.,334.2 g
same,"Mean body weight, Start",500 mg/kg b.w.,228.0 g
same,Toxic signs,500 mg/kg bw,None
same,Mortality within 7 d,500 mg/kg bw,0
same,Mortality within 14 d,500 mg/kg bw,0
same,Chromodacryorrhea,1000 mg/kg b.w.,None
same,Inhibition of body weight gain,1000 mg/kg b.w.,None
same,"Mean body weight gain, After 7 d",1000 mg/kg b.w.,+22.4%
same,"Mean body weight, After 7 d",1000 mg/kg b.w.,271.2 g
same,Mortality within 6 h,1000 mg/kg b.w.,0
same,Mortality within 24 h,1000 mg/kg b.w.,0
same,Necropsy findings,1000 mg/kg b.w.,None
same,Piloerection,1000 mg/kg b.w.,None
same,Ptosis,1000 mg/kg b.w.,None
same,"Mean body weight gain, End",1000 mg/kg b.w.,+36.6%
same,"Mean body weight, End",1000 mg/kg b.w.,302.6 g
same,"Mean body weight, Start",1000 mg/kg b.w.,221.6 g
same,Toxic signs,1000 mg/kg bw,"reduced motility was observed, with reduced muscle tone, ataxia, and dyspnea; also recorded: Reduced motility and muscle tone, ataxia, dyspnoea"
same,Mortality within 7 d,1000 mg/kg bw,0
same,Mortality within 14 d,1000 mg/kg bw,0
same,Macroscopic necropsy findings,all doses,None
same,Premature deaths in the acute toxicity study,"male, CD/Crl:CD(SD), 14 days",None of the 30 rats died
same,Premature deaths in the acute toxicity study,,did not lead to any death
same,Dose up to which no acute toxicity was shown,"rats, single p.o. dose",1000 mg/kg b.w.
same,Lowest lethal dose,"rats, single p.o. dose",>1000 mg/kg bw
same,No Observed Adverse Effect Level,"rats, single p.o. dose",500 mg/kg bw
same,LD50(14 d),"rats, single p.o. dose, 14 days",>1000 mg/kg bw
